From patent publication US20250318525A1, “COMPOSITIONS TO CONTROL THE RELEASE RATES OF CHEMICAL PESTICIDES” (priority 2020, published 2025)
≈ marks a conversion by molar mass, not a printed value. Like-named read-outs stand apart in the source and are kept apart here. One block for each compound: values may come before it.

Assays:
[1] = 2,4D release from tablets containing preformed 2,4D complexes (Examples 8, 10, 11); type: physicochemical; details: 20% 2,4D tablets in silt, 1 L deionized water, 20° C., 60 rpm, FIGS. 16, 18, 19
Experimental: The resulting solids were filtered and resuspended in deionized water with stirring for 15 min., then filtered again. The solids were dried to constant mass in a food dehydrator 120° F.
The resulting tablets were immersed in 1 L of deionized water at 20° C. and stirred at 60 rpm for the designated time period.

physchem = details: water
[2] = Terrestrial sand bed with 2,4D salts and modeled rain events (Example 24); type: physicochemical; details: 7×200 mL flushes of deionized water, FIG. 33
Experimental: 200 mL of sand was layered in a Buchner funnel with filter paper. 2,4D salts were blended with 5.0 g of sand, and layered atop the 200 mL sand bed and exposed to 7×200 mL flushes of deionized water. 2,4D concentration was measured in the flush water to study how the associated metal impacted how rapidly 2,4D was lost from the surface.
In a terrestrial application, 2,4D lost from the surface would no longer be available to treat the target plant.

[3] = TFM release when paired with bases of increasing solubility; type: physicochemical
[4] = Benzoic acid release from benzoic acid salt tablets (Example 21); type: physicochemical; details: 1 L stirred deionized water, room temperature, FIG. 30
Experimental: Benzoic acid (BA) is a structural analogue to dicamba with its carboxylic acid in the benzyl position. BA salts were prepared by mixing a stoichiometric amount of metal hydroxide with benzoic acid in deionized water for a minimum of 12 hours. The resulting solids were filtered out of solution and dried in a dehydrator for 12 hours at 120° F. These were then blended with silt in a mortar and pestle and pressed on a desktop tablet press into 6 mm tablets (average tablet weight 0.093 g).
• A. 0.1 g BA, 0.4 g silt • B. 0.1 g Mg(BA)2, 0.4 g silt • C. 0.1 g Ca(BA)2, 0.4 g silt • D. 0.1 g Cu(BA)2, 0.4 g silt • E. 0.1 g Na benzoate, 0.4 g silt
These tablets were immersed in 1 L, stirred (60 rpm), room temperature, deionized water with two tablets per jar. […] A trend can be expected, but not predicted. Based on this, a trend could also be expected when dicamba is paired with metal ions.

[5] = as listed in FIG. 36
[6] = Release from dual active tablets, copper-endothall salt and Mg(triclopyr)2 or Ca(triclopyr)2 (Example 19); type: physicochemical; details: tablets with Mg(triclopyr)2 or Ca(triclopyr)2, 1 L stirred deionized water, both formulations, FIG. 28
Experimental: Formulations were prepared with 33 weight percent each of copper-endothall salt, Mg(triclopyr)2 or Ca(triclopyr)2 salt, and silt. Formulations were mixed using a blender and then pressed into 6 mm tablets (average weight of 0.082 g/tablet) using a desktop tablet press.
• A. 0.5 g Endothall (Cu), 0.5 g triclopyr (Ca), 0.5 g silt • B. 0.5 g Endothall (Cu), 0.5 g triclopyr (Mg), 0.5 g silt
(§1) The resulting tablets were immersed in 1 L of stirred deionized water (60 rpm). […] The copper endothall salt portion of the formulation releases rapidly within 24 hours for both formulations.

[7] = Release from dual active tablets, copper-endothall salt and Mg(2,4D)2 or Ca(2,4D)2 (Example 18); type: physicochemical; details: tablets with Mg(2,4D)2 or Ca(2,4D)2, 1 L stirred deionized water, both formulations, FIG. 27
Experimental: Formulations were mixed using a blender and then pressed into 6 mm tablets (average weight of 0.082 g/tablet) using a desktop tablet press. Exact Formulations: • A. 0.5 g Endothall (Cu), 0.5 g 2,4D (Ca), 0.5 g silt • B. 0.5 g Endothall (Cu), 0.5 g 2,4D (Mg), 0.5 g silt
as §1

Structure (SMILES): O=C(O)COc1ccc(Cl)cc1Cl [Ca(2,4D)2]
- 2,4D release rate, comparison ([1]; listed as premade calcium complex): not significantly slower

Structure (SMILES): O=C(O)COc1ccc(Cl)cc1Cl [2,4D, 2,4-dichlorophenoxyacetic acid, reference compound]
- solubility (physchem): 740 µg/mL (≈ 3.35 mM)
- 2,4D release rate, comparison [1]: releases significantly faster than the Ca(2,4D)2

Structure (SMILES): O=C([O-])COc1ccc(Cl)cc1Cl.O=C([O-])COc1ccc(Cl)cc1Cl.[Cu+2] [Cu(2,4D)2]
- 2,4D release rate, comparison [1]: the slowest of all
- tolerance of 2,4D salt on sand bed to water flushes [2]: most tolerant to frequent exposure to rain or watering events

- TFM release rate, order by paired base [3]: Mg(OH)2<Ca(OH)2<<<KOH
Structure (SMILES): O=[N+]([O-])c1ccc(O)cc1C(F)(F)F [TFM, 3-trifluoromethyl-4-nitrophenol]

Structure (SMILES): O=C([O-])c1ccccc1.O=C([O-])c1ccccc1.[Ca+2] [Ca(BA)2]
- benzoic acid release rate, comparison [4]: releases significantly faster than BA

Structure (SMILES): O=C([O-])COc1ccc(Cl)cc1Cl.O=C([O-])COc1ccc(Cl)cc1Cl.[Fe+2] [Fe(2,4D)2]
- 2,4D release rate, comparison [1]: releases more slowly than 2,4D
- solubility [5]: 1860 µg/mL

Structure (SMILES): O=C([O-])C1C2CCC(O2)C1C(=O)[O-].[Cu+2] (stereo not drawn) [copper endothall salt]
- time for release of endothall portion [6]: ≤ 24 h
- time for release of endothall portion [7]: ≤ 24 h

Structure (SMILES): O=C([O-])COc1ccc(Cl)cc1Cl.[Na+] [Na(2,4D)]
- 2,4D release rate, comparison [1]: releases the fastest
